Experimental data from ChEMBL document CHEMBL5370554, “Discovery of a first-in-class Aurora A covalent inhibitor for the treatment of triple negative breast cancer” (Eur J Med Chem, 2023).

Legend:
MDA-MB-231 [1] = assay: Antiproliferative activity against human MDA-MB-231 cells assessed as inhibition of cell proliferation incubated for 48 hrs by CCK-8 assay; format: functional, cell-based; details: MDA-MB-231, 48 h
[2] = Cytotoxicity against human L02 cells assessed as inhibition of cell proliferation incubated for 48 hrs by CCK-8 assay; format: toxicity, cell-based
SJSA-1 = assay: Antiproliferative activity against human SJSA-1 cells assessed as inhibition of cell proliferation incubated for 48 hrs by CCK-8 assay; format: functional, cell-based; details: SJSA-1, 48 h
HeLa = assay: Antiproliferative activity against human HeLa cells assessed as inhibition of cell proliferation incubated for 48 hrs by CCK-8 assay; format: functional, cell-based
A549 = assay: Antiproliferative activity against human A549 cells assessed as inhibition of cell proliferation incubated for 48 hrs by CCK-8 assay; format: functional, cell-based; details: A549, 48 h
Aurora kinase A = target: T1, Aurora kinase A (Homo sapiens, UniProt O14965); assay: Inhibition of recombinant human Aurora A (1 to 403 residues) expressed in Escherichia coli using FAM-labeled peptide as substrate preincubated for 10 mins followed by substrate addition and measured after 20 mins in presence of ATP by HTRF assay
T1 sequence (O14965 whole entry): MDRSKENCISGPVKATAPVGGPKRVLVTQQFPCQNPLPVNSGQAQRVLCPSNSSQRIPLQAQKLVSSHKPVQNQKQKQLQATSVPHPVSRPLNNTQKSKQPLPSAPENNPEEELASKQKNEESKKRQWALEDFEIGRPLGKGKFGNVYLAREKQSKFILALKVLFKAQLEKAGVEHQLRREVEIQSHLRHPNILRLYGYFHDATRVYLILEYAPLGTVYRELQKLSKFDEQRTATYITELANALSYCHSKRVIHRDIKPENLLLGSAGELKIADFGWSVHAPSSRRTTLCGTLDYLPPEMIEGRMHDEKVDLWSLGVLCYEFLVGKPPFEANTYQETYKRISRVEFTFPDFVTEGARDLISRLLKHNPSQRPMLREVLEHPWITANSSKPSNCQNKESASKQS

MDA-MB-231 [3] = assay: Antitumor activity against human MDA-MB-231 cells xenografted in BALB/c nude mouse assessed as tumor growth inhibition at 30 mg/kg,ip every 2days for 20 days; format: functional; details: MDA-MB-231, 480 h, time 20 day, read-out: TGI
[4] = Toxicity in BALB/c nude mouse xenografted with human MDA-MB-231 cells assessed as body weight change at 30 mg/kg,ip every 2days for 20 days; format: organism-based; details: in vivo, 480 h, time 20 day

IC50 (MDA-MB-231 [1]) | IC50 (SJSA-1) | IC50 (HeLa) | IC50 (A549) | IC50 (Aurora kinase A) | Structure (SMILES) | IC50 at 48 h [2] | inhibition in vivo at 30 mg/kg (MDA-MB-231 [3]) | Activity [4]
1.44 µM | 18.8 µM | 5.5 µM | 1.44 µM |  | Cc1cc(Nc2nc(-c3ccccc3)nc3cc(N4CCN(C)CC4)ccc23)n[nH]1 | 2.74 µM |  | 
6.96 µM | 12.5 µM | 7.52 µM | 1.77 µM |  | Cc1cc(Nc2nc(-c3cccc(N)c3)nc3cc(N4CCOCC4)ccc23)n[nH]1 |  |  | 
1.75 µM | 3.67 µM | 6.77 µM | 2.06 µM | 0.0021 µM | Cc1cc(Nc2nc(-c3cccc(N)c3)nc3cc(N4CCN(C)CC4)ccc23)n[nH]1 |  |  | 
2.43 µM | 11.6 µM | 3.8 µM | 2.69 µM | 0.0055 µM | Cc1cc(Nc2nc(-c3ccccc3O)nc3cc(N4CCN(C)CC4)ccc23)n[nH]1 |  |  | 
2.6 µM | 6.8 µM | 4.22 µM | 3.27 µM | 0.0015 µM | C=CC(=O)Nc1cccc(-c2nc(Nc3cc(C)[nH]n3)c3ccc(N4CCN(C)CC4)cc3n2)c1 |  |  | 
2.66 µM | 14.8 µM | 5.51 µM | 0.26 µM | 0.0027 µM | C=CC(=O)Nc1ccc(-c2nc(Nc3cc(C)[nH]n3)c3ccc(N4CCOCC4)cc3n2)cc1 | 43.2 µM |  | 
0.76 µM | 2.66 µM | 8.3 µM | 1.13 µM | 0.011 µM | Cc1cc(Nc2nc(-c3ccccc3N)nc3cc(N4CCN(C)CC4)ccc23)n[nH]1 |  |  | 
5.21 µM | 56.7 µM | 9.02 µM | 2.65 µM |  | Cc1cc(Nc2cc(N3CCN(C)CC3)nc(/C=C/c3ccccc3)n2)n[nH]1 [ENMD-2076] | 42.6 µM | 30.9% | Non-Toxic
1.66 µM | 23.6 µM | 9.13 µM | 0.31 µM | 0.0011 µM | C=CC(=O)Nc1cc(-c2nc(Nc3cc(C)[nH]n3)c3ccc(N4CCN(C)CC4)cc3n2)ccc1C | 34.2 µM |  | 
13.4 µM | 13.9 µM | 41.2 µM | 19.7 µM | 0.045 µM | C=CC(=O)Nc1ccccc1-c1nc(Nc2cc(C)[nH]n2)c2ccc(N3CCN(C)CC3)cc2n1 |  |  | 
1.49 µM | 10.7 µM | 6.8 µM | 2.15 µM | 0.002 µM | Cc1cc(Nc2nc(-c3cccc(O)c3)nc3cc(N4CCN(C)CC4)ccc23)n[nH]1 |  |  | 
2.2 µM | 28.6 µM | 17.9 µM | 1.18 µM | 0.005 µM | CCC(=O)Nc1ccc(-c2nc(Nc3cc(C)[nH]n3)c3ccc(N4CCN(C)CC4)cc3n2)cc1 | 24.7 µM |  | 
5.9 µM | 12.5 µM | 2.23 µM | 0.85 µM | 0.0017 µM | C=CC(=O)Nc1cccc(-c2nc(Nc3cc(C)[nH]n3)c3ccc(N4CCOCC4)cc3n2)c1 |  |  | 
1.34 µM | 17.4 µM | 9.68 µM | 4.74 µM | 0.0025 µM | Cc1cc(Nc2nc(-c3ccc(O)cc3)nc3cc(N4CCN(C)CC4)ccc23)n[nH]1 |  |  | 
0.64 µM | 2.82 µM | 4.88 µM | 4.12 µM | 0.0031 µM | Cc1cc(Nc2nc(-c3ccc(N)cc3)nc3cc(N4CCN(C)CC4)ccc23)n[nH]1 |  |  | 
4.39 µM | 6.54 µM | 7.3 µM | 1.64 µM |  | Cc1cc(Nc2nc(-c3ccc(N)cc3)nc3cc(N4CCOCC4)ccc23)n[nH]1 |  |  | 

Structure (SMILES) | IC50 (MDA-MB-231 [1]) | IC50 (SJSA-1) | IC50 (HeLa) | IC50 (A549) | IC50 (Aurora kinase A) | IC50 at 48 h [2] | inhibition in vivo at 30 mg/kg (MDA-MB-231 [3]) | Activity [4]
Cc1cc(Nc2nc(-c3ccc(OS(=O)(=O)F)cc3)nc3cc(N4CCN(C)CC4)ccc23)n[nH]1 | 4.34 µM | 23.1 µM | 4.87 µM | 1.15 µM | 0.025 µM |  |  | 
